Test results published in publication PMC4835244 (Stem Cells Translational Medicine, 2016).
Structures can show the parent of a compound that is named as a salt. Where two headings read alike, the source gives them in different places.

Experiments:
p53 = details: ref PubChem AID 720552; cited from earlier work
[1] = test system: ARE/Nrf2 pathway (CellSensor ARE-bla HepG2 cell line); assay: ARE-bla β-lactamase reporter gene assay; format: cell-based; details: HepG2 cells
[2] = test system: activator protein 1 (AP1); details: assays previously performed; cited from earlier work
heat shock element (HSE) = details: ref PubChem AID 743228; cited from earlier work
in vitro = details: human

**Q.** For `OC[C@H]1O[C@H]([S-])[C@H](O)[C@@H](O)[C@@H]1O.[Au+]` [Aurothioglucose], which “Cytotoxicity to HepG2 cells (CTG)” value (HepG2 cells) is on record?
**A.** toxic at the highest concentrations

**Q.** What about the “Activity in β-lactamase reporter gene assay for p53” value (p53) of the same molecule?
**A.** not active

**Q.** And the “Activation of ARE-β-lactamase expression” value [1]?
**A.** directly activated ARE-β-lactamase expression

**Q.** And the “Shape of activity in the ARE-bla assay” value [1]?
**A.** bell shaped

**Q.** For `CC(C)(C)c1ccc(C(=O)CCCN2CCC(OC(c3ccccc3)c3ccccc3)CC2)cc1` [Ebastine], which “Cytotoxicity to HepG2 cells (CTG)” value (HepG2 cells; human, 18 h) is on record?
**A.** cytotoxic to HepG2 cells

**Q.** Which results are given for `c1ccc2c(c1)OCC(C1=NCCN1)O2` (centres unmarked) [Idazoxan hydrochloride]?
**A.** Activity in β-lactamase reporter gene assay for AP1 [2]: not active in any of these assays; Activity in β-lactamase reporter gene assay for HSE (heat shock element (HSE)): not active in any of these assays; Cytotoxicity to HepG2 cells (CTG) (HepG2 cells; human, 18 h): not toxic to HepG2 cells at the concentrations tested; Activity in β-lactamase reporter gene assay for p53 (p53): not active in any of these assays; Activation of ARE-β-lactamase expression [1]: directly activated ARE-β-lactamase expression; Shape of activity in the ARE-bla assay [1]: simple increase in ARE activation

**Q.** With `O=C1c2ccccc2C(=O)c2c(NCCc3ccc(O)cc3)ccc(NCCc3ccc(O)cc3)c21` [JFD00244] as the molecule, how does the “Activation of ARE-β-lactamase expression” value [1] read?
**A.** active in only one repetition

**Q.** Which “Cytotoxicity to HepG2 cells (CTG)” value (HepG2 cells; human, 18 h) does the source give for `Cc1ccccc1/C=C/C1=NCCN1` [Metrazoline oxalate] here?
**A.** not toxic to HepG2 cells at the concentrations tested

**Q.** And the “Activation of ARE-β-lactamase expression” value [1]?
**A.** directly activated ARE-β-lactamase expression

**Q.** And the “Shape of activity in the ARE-bla assay” value [1]?
**A.** simple increase in ARE activation

**Q.** With `COc1c(C)c2c(c(O)c1C/C=C(\C)CCC(=O)O)C(=O)OC2` [Mycophenolic acid] as the molecule, how does the “Activation of ARE-β-lactamase expression” value [1] read?
**A.** active in only one repetition

**Q.** For `COc1cccc2c1C(=O)c1c(O)c3c(c(O)c1C2=O)C[C@@](O)(C(=O)CO)C[C@@H]3O[C@H]1C[C@H](N2CCO[C@H](OC)C2)[C@H](O)[C@H](C)O1` [Nemorubicin], which “Cytotoxicity to HepG2 cells (CTG)” value (HepG2 cells; human, 18 h) is on record?
**A.** cytotoxic to HepG2 cells

**Q.** With `O=C1OC(=O)[C@H]2[C@@H]1[C@@H]1CC[C@H]2O1` [Norcantharidin] as the molecule, how does the “Activation of ARE-β-lactamase expression” value [1] read?
**A.** active in only one repetition

**Q.** Which IC50 at 24 h (in vitro) does the source give for `CC(C)(C)c1ccc(C(O)CCCN2CCC(C(O)(c3ccccc3)c3ccccc3)CC2)cc1` (centres unmarked) [Terfenadine] here?
**A.** 6.7 µM

**Q.** For `C/C=C(/C)C(=O)O[C@H]1C(C)=C2[C@H]([C@@H]1OC(=O)CCCCCCC)[C@@](C)(OC(C)=O)C[C@H](OC(=O)CCC)[C@@]1(O)[C@H]2OC(=O)[C@@]1(C)O` [Thapsigargin], which “Cytotoxicity to HepG2 cells (CTG)” value (HepG2 cells; human, 18 h) is on record?
**A.** cytotoxic to HepG2 cells
